Assay results taken from patent US12227520B2 (priority 2019, dated 2025).
pEC50: −log10 of the molar value. Where two headings read alike, the source gives them in different places.

What was measured:
pLai RLuc reporter virus = experiment: microbe, parasite or virus in culture; assay type: cell-based, HIV
In short: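 Read-out is Renilla luciferase after 72 h at 37 °C in MT-4 cells infected 2 h beforehand with pLai RLuc reporter virus; compounds diluted 1:3.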

HIV-1 (IIIB) = experiment: Antiviral assay in MT-4 cells (HIV MT-4 antiviral assay); assay type: cell-based; settings: Human immunodeficiency virus 1, IIIB, MT4, 120 h, HIV-1 (IIIB) in MT-4 cells, 5 days incubation; read-out: EC50
In short: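 Read-out is CellTiter-Glo chemiluminescence after 5-day culture at 37° C, giving protection of MT-4 cells from HIV-1 IIIB cytopathicity. Compounds tested in 1:3 dilution series in complete RPMI; controls were no drug, mock infection and 5 μM AZT.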

[1] = Cytotoxicity assay in MT-4 cells; assay type: cell-based, human; settings: human, uninfected MT-4 cells, 5 days incubation; read-out: CC50
In short: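 For cytotoxicity, uninfected MT-4 cells were incubated with compounds 5 days at 37 °C, with 10 μM puromycin marking base cytotoxicity. Parallel plates used HIV-1 IIIB-infected (1:250 stock dilution) or mock cells with 5 μM AZT and no-drug controls. Read-out: CellTiter-Glo chemiluminescence.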

[2] = Human immunodeficiency virus 1, 72 h, read-out: Antiviral Serum Shift RLuc 50% HS, HS/CCM (RPMI media, 10% FBS, 50% HS, 1% P/S), 72-h incubation
[3] = Human immunodeficiency virus 1, 72 h, read-out: Antiviral Serum Shift RLuc CCM, CCM (RPMI media, 10% FBS, 1% P/S), 72-h incubation

`O=C(NCc1ccc(F)cc1F)c1cn2c(c(O)c1=O)C(=O)N1CCCC(F)(F)[C@H]2C1` [Example 16-2, (7R)—N-(2,4-difluorobenzyl)-6,6-difluoro-12-hydroxy-1,11-dioxo-1,4,5,6,7,11-hexahydro-3H-2,7-methanopyrido[1,2-a][1,4]diazonine-10-carboxamide] gave a pEC50 (pLai RLuc reporter virus; [2]) of 7.08, a pEC50 (pLai RLuc reporter virus; [3]) of 9.07 and a pEC50 (HIV-1 (IIIB)) of 8.28. For the same molecule, the CC50 at 5 days [1] was 36200 nM.
For `CC1CCCN2CC1n1cc(C(=O)NCc3ccc(F)cc3F)c(=O)c(O)c1C2=O` (stereo not drawn) [Example 17-1b, N-(2,4-difluorobenzyl)-12-hydroxy-6-methyl-1,11-dioxo-1,4,5,6,7,11-hexahydro-3H-2,7-methanopyrido[1,2-a][1,4]diazonine-10-carboxamide], the pEC50 (pLai RLuc reporter virus; [3]) was 9.59, the pEC50 (pLai RLuc reporter virus; read-out: Antiviral Serum Shift RLuc 50% HS, HS/CCM (RPMI media, 10% FBS, 50% HS, 1% P/S), 72-h incubation) was 8.51 and the pEC50 (HIV-1 (IIIB)) was 8.92. It also gave a CC50 at 5 days [1] of 10900 nM.
With `O=C(NCc1c(F)cc(F)cc1F)c1cn2c(c(O)c1=O)C(=O)N1CCOC[C@@H]2C1` [Example 19, (7S)-12-hydroxy-1,11-dioxo-N-(2,4,6-trifluorobenzyl)-1,3,4,6,7,11-hexahydro-2,7-methanopyrido[1,2-d][1,4,7]oxadiazonine-10-carboxamide] the pEC50 (pLai RLuc reporter virus; [2]) was 8.36, the pEC50 (pLai RLuc reporter virus; [3]) was 8.92 and the pEC50 (HIV-1 (IIIB)) was 8.40. The CC50 at 5 days [1] was > 50000 nM.
With `O=C(NCc1c(F)cc(F)cc1F)c1cn2c(c(O)c1=O)C(=O)N1CCOC[C@H]2C1` [Example 20, (7R)-12-Hydroxy-1,11-dioxo-N-(2,4,6-trifluorobenzyl)-1,3,4,6,7,11-hexahydro-2,7-methanopyrido[1,2-d][1,4,7]oxadiazonine-10-carboxamide] the pEC50 (pLai RLuc reporter virus; [2]) was 7.48, the pEC50 (pLai RLuc reporter virus; [3]) was 8.74 and the pEC50 (HIV-1 (IIIB)) was 8.25. It also gave a CC50 at 5 days [1] of 37200 nM.
`O=C(NCc1c(F)cc(F)cc1F)c1cn2c(c(O)c1=O)C(=O)N1CCCC[C@@H]2C1` [Example 26-1, (7R)-12-hydroxy-1,11-dioxo-N-(2,4,6-trifluorobenzyl)-1,4,5,6,7,11-hexahydro-3H-2,7-methanopyrido[1,2-a][1,4]diazonine-10-carboxamide] showed a pEC50 (pLai RLuc reporter virus; [2]) of 7.48, a pEC50 (pLai RLuc reporter virus; [3]) of 9.45 and a pEC50 (HIV-1 (IIIB)) of 8.85. For the same molecule, the CC50 at 5 days [1] was 15900 nM.
Work on `O=C(NCc1c(F)cc(F)cc1F)c1cn2c(c(O)c1=O)C(=O)N1CCCC[C@H]2C1` [Example 26-2, (7S)-12-hydroxy-1,11-dioxo-N-(2,4,6-trifluorobenzyl)-1,4,5,6,7,11-hexahydro-3H-2,7-methanopyrido[1,2-a][1,4]diazonine-10-carboxamide] yielded a pEC50 (pLai RLuc reporter virus; [2]) of 8.64, a pEC50 (pLai RLuc reporter virus; [3]) of 9.45 and a pEC50 (HIV-1 (IIIB)) of 8.88. The CC50 at 5 days [1] was 14400 nM.
For `CC(C)N1CCN2CC(C1)n1cc(C(=O)NCc3ccc(F)cc3F)c(=O)c(O)c1C2=O` (stereo not drawn) [Example 34, N-(2,4-difluorobenzyl)-12-hydroxy-5-isopropyl-1,11-dioxo-1,4,5,6,7,11-hexahydro-3H-2,7-methanopyrido[1,2-a][1,4,7]triazonine-10-carboxamide], the pEC50 (pLai RLuc reporter virus; [2]) was 8.02, the pEC50 (pLai RLuc reporter virus; [3]) was 8.69 and the pEC50 (HIV-1 (IIIB)) was 8.48. It also gave a CC50 at 5 days [1] of 16400 nM.
Work on `O=C(NCc1ccc(F)c(Cl)c1F)c1cn2c(c(O)c1=O)C(=O)N1CCCC[C@@H]2C1` [Example 35, (7R)—N-(3-chloro-2,4-difluorobenzyl)-12-hydroxy-1,11-dioxo-1,4,5,6,7,11-hexahydro-3H-2,7-methanopyrido[1,2-a][1,4]diazonine-10-carboxamide] yielded a pEC50 (pLai RLuc reporter virus; [2]) of 7.35, a pEC50 (pLai RLuc reporter virus; [3]) of 9.37 and a pEC50 (HIV-1 (IIIB)) of 8.82. The CC50 at 5 days [1] was 4960 nM.
`O=C(NCc1ccc(F)cc1F)c1cn2c(c(O)c1=O)C(=O)N1CC2CCc2ccccc21` (stereo not drawn) [Example 36, N-(2,4-difluorobenzyl)-7-hydroxy-6,8-dioxo-6,8,13,14-tetrahydro-12H-5,12-methanobenzo[e]pyrido[1,2-a][1,4]diazonine-9-carboxamide] showed a pEC50 (pLai RLuc reporter virus; [2]) of 8.15, a pEC50 (pLai RLuc reporter virus; [3]) of 9.04 and a pEC50 (HIV-1 (IIIB)) of 8.70. For the same molecule, the CC50 at 5 days [1] was 17700 nM.
Work on `O=C(NCc1c(F)cc(F)cc1F)c1cn2c(c(O)c1=O)C(=O)N1C[C@H]3CC[C@H](C3)[C@H]2C1` [Example 41-1, (4S,7R,8S)-13-hydroxy-1,12-dioxo-N-(2,4,6-trifluorobenzyl)-1,3,4,5,6,7,8,12-octahydro-2,8:4,7-dimethanopyrido[1,2-a][1,4]diazecine-11-carboxamide] yielded a pEC50 (pLai RLuc reporter virus; [2]) of 8.18, a pEC50 (pLai RLuc reporter virus; [3]) of 9.47 and a pEC50 (HIV-1 (IIIB)) of 8.80. For the same molecule, the CC50 at 5 days [1] was 15600 nM.
Work on `O=C(NCc1c(F)cc(F)cc1F)c1cn2c(c(O)c1=O)C(=O)N1C[C@@H]3CC[C@@H](C3)[C@@H]2C1` [Example 41-2, (4R,7S,8R)-13-hydroxy-1,12-dioxo-N-(2,4,6-trifluorobenzyl)-1,3,4,5,6,7,8,12-octahydro-2,8:4,7-dimethanopyrido[1,2-a][1,4]diazecine-11-carboxamide] yielded a pEC50 (pLai RLuc reporter virus; [2]) of 9.01, a pEC50 (pLai RLuc reporter virus; [3]) of 9.59 and a pEC50 (HIV-1 (IIIB)) of 8.85. For the same molecule, the CC50 at 5 days [1] was 14300 nM.
`O=C(NCc1c(F)cc(F)cc1F)c1cn2c(c(O)c1=O)C(=O)N1C[C@@H]2CCc2c(F)cccc21` [Example 43-1, (12S)-1-fluoro-7-hydroxy-6,8-dioxo-N-(2,4,6-trifluorobenzyl)-6,8,13,14-tetrahydro-12H-5,12-methanobenzo[e]pyrido[1,2-a][1,4]diazonine-9-carboxamide] showed a pEC50 (pLai RLuc reporter virus; [2]) of 6.83, a pEC50 (pLai RLuc reporter virus; [3]) of 8.36 and a pEC50 (HIV-1 (IIIB)) of 7.38. For the same molecule, the CC50 at 5 days [1] was 8100 nM.
In the case of `O=C(NCc1c(F)cc(F)cc1F)c1cn2c(c(O)c1=O)C(=O)N1C[C@H]2CCc2c(F)cccc21` [Example 43-2, (12R)-1-fluoro-7-hydroxy-6,8-dioxo-N-(2,4,6-trifluorobenzyl)-6,8,13,14-tetrahydro-12H-5,12-methanobenzo[e]pyrido[1,2-a][1,4]diazonine-9-carboxamide], the pEC50 (pLai RLuc reporter virus; [2]) was 9.19, the pEC50 (pLai RLuc reporter virus; [3]) was 9.54 and the pEC50 (HIV-1 (IIIB)) was 8.81. The CC50 at 5 days [1] was 9150 nM.
With `O=C(NCc1ccc(F)cc1F)c1cn2c(c(O)c1=O)C(=O)N1CC/C=C\C[C@@H]2C1` [Example 44-1, (8R,Z)—N-(2,4-difluorobenzyl)-13-hydroxy-1,12-dioxo-1,3,4,7,8,12-hexahydro-2,8-methanopyrido[1,2-a][1,4]diazecine-11-carboxamide] the pEC50 (pLai RLuc reporter virus; [2]) was 8.63, the pEC50 (pLai RLuc reporter virus; [3]) was 9.17 and the pEC50 (HIV-1 (IIIB)) was 8.77. The CC50 at 5 days [1] was 10700 nM.
Molecule `O=C(NCc1ccc(F)cc1F)c1cn2c(c(O)c1=O)C(=O)N1CC/C=C\C[C@H]2C1` [Example 44-2, (8S,Z)—N-(2,4-difluorobenzyl)-13-hydroxy-1,12-dioxo-1,3,4,7,8,12-hexahydro-2,8-methanopyrido[1,2-a][1,4]diazecine-11-carboxamide] has a pEC50 (pLai RLuc reporter virus; [2]) of 7.43, a pEC50 (pLai RLuc reporter virus; [3]) of 9.58 and a pEC50 (HIV-1 (IIIB)) of 8.63. It also gave a CC50 at 5 days [1] of 15100 nM.
With `O=C(NCc1c(F)cc(F)cc1F)c1cn2c(c(O)c1=O)C(=O)N1C[C@@H]2CCc2c(Cl)cccc21` [Example 45-1, (12S)-1-chloro-7-hydroxy-6,8-dioxo-N-(2,4,6-trifluorobenzyl)-6,8,13,14-tetrahydro-12H-5,12-methanobenzo[e]pyrido[1,2-a][1,4]diazonine-9-carboxamide] the pEC50 (pLai RLuc reporter virus; [2]) was 8.59, the pEC50 (pLai RLuc reporter virus; [3]) was 9.44 and the pEC50 (HIV-1 (IIIB)) was 8.78. The CC50 at 5 days [1] was 6900 nM.
For `O=C(NCc1c(F)cc(F)cc1F)c1cn2c(c(O)c1=O)C(=O)N1C[C@H]2CCc2cccc(F)c21` [Example 46-2, (12R)-4-fluoro-7-hydroxy-6,8-dioxo-N-(2,4,6-trifluorobenzyl)-6,8,13,14-tetrahydro-12H-5,12-methanobenzo[e]pyrido[1,2-a][1,4]diazonine-9-carboxamide], the pEC50 (pLai RLuc reporter virus; [2]) was 8.54, the pEC50 (pLai RLuc reporter virus; [3]) was 9.69 and the pEC50 (HIV-1 (IIIB)) was 8.85. For the same molecule, the CC50 at 5 days [1] was 12500 nM.
`O=C(NCc1ccc(F)cc1F)c1cn2c(c(O)c1=O)C(=O)N1CC=CC[C@@H]2C1` [Example 47-1, (7R)—N-(2,4-difluorobenzyl)-12-hydroxy-1,11-dioxo-1,6,7,11-tetrahydro-3H-2,7-methanopyrido[1,2-a][1,4]diazonine-10-carboxamide] showed a pEC50 (pLai RLuc reporter virus; [2]) of 7.59, a pEC50 (pLai RLuc reporter virus; [3]) of 9.17 and a pEC50 (HIV-1 (IIIB)) of 8.31. For the same molecule, the CC50 at 5 days [1] was 11100 nM.
In the case of `O=C(NCc1ccc(F)cc1F)c1cn2c(c(O)c1=O)C(=O)N1CC=CC[C@H]2C1` [Example 47-2, (7S)—N-(2,4-difluorobenzyl)-12-hydroxy-1,11-dioxo-1,6,7,11-tetrahydro-3H-2,7-methanopyrido[1,2-a][1,4]diazonine-10-carboxamide], the pEC50 (pLai RLuc reporter virus; [2]) was 8.99, the pEC50 (pLai RLuc reporter virus; [3]) was 9.61 and the pEC50 (HIV-1 (IIIB)) was 8.94. For the same molecule, the CC50 at 5 days [1] was 8720 nM.
`O=C(NCc1c(F)cc(F)cc1F)c1cn2c(c(O)c1=O)C(=O)N1C[C@H]2CCc2cc(Cl)ccc21` [Example 48-2, (12R)-2-chloro-7-hydroxy-6,8-dioxo-N-(2,4,6-trifluorobenzyl)-6,8,13,14-tetrahydro-12H-5,12-methanobenzo[e]pyrido[1,2-a][1,4]diazonine-9-carboxamide] showed a pEC50 (pLai RLuc reporter virus; [2]) of 8.82, a pEC50 (pLai RLuc reporter virus; [3]) of 9.45 and a pEC50 (HIV-1 (IIIB)) of 8.62. It also gave a CC50 at 5 days [1] of 17600 nM.
Work on `O=C(NCc1ccc(F)cc1F)c1cn2c(c(O)c1=O)C(=O)N1C[C@H]2CCc2cc(Cl)ccc21` [Example 49-2, (12R)-2-chloro-N-(2,4-difluorobenzyl)-7-hydroxy-6,8-dioxo-6,8,13,14-tetrahydro-12H-5,12-methanobenzo[e]pyrido[1,2-a][1,4]diazonine-9-carboxamide] yielded a pEC50 (pLai RLuc reporter virus; [2]) of 8.95, a pEC50 (pLai RLuc reporter virus; [3]) of 9.70 and a pEC50 (HIV-1 (IIIB)) of 8.62. The CC50 at 5 days [1] was 7200 nM.
